In patent US10301304B2, “Selective inhibitor of phosphatidylinositol 3-kinase-gamma” (VERTEX PHARMACEUTICALS INCORPORATED, priority 2013, dated 2019):

Assays:
[1] = Intravenous bolus pharmacokinetics; type: in vivo, Rat; details: rat, plasma, Intravenous bolus, 0.5 mg/kg nominal dose; for AUC: iv, 0.5 mg/kg, read-out: Rat IV AUC; for clearance: read-out: Rat IV CL
From the text: Following intravenous administration of a single bolus dose, Compound 1 had low systemic clearance and a long half-life in all species tested. […] The volume of distribution was greater than the total body water, indicating distribution of Compound 1 to tissues.

[2] = Oral pharmacokinetics / bioavailability; type: in vivo, Rat; details: rat, in vivo, Oral gavage, 3 mg/kg nominal dose, vehicle 0.2%MC/1%SLS; for AUC: read-out: Rat PO AUC; for Cmax: read-out: Rat PO Cmax
From the text: The bioavailability in monkey (greater than 100%) may be explained by the tenfold difference between the IV and oral doses. Compound 1 was rapidly absorbed in all species, with maximum systemic concentration observed within approximately one to three hours of dosing.

[3] = test system: collagen-induced arthritis (CIA); assay: therapeutic mouse collagen-induced arthritis (CIA) model; type: in vivo; design: Histopathology Summed Score, Knees / Therapeutic Paw Score AUC / Histopathology Summed Score, Six Joints / Histopathology Summed Score, Paws: scale not given here; details: Fostamatinib 30 mg/kg BID
Description: Compound 1 was tested in the therapeutic mouse collagen-induced arthritis (CIA) model at 2.5 mg/kg BID (5 mg/kg/day), 5 mg/kg BID (10 mg/kg/day) or 10 mg/kg BID (20 mg/kg/day). Fostamatinib, a Syk small molecule inhibitor used as a reference standard, was dosed orally at 30 mg/kg BID (60 mg/kg/day). Compounds were dosed for 10 days in a 12/12-hour BID dosing regimen until the end of the study. Compound 1 was formulated in 0.2% MC, 1% SLS. Dosing volume was 10 mL/kg. Terminal plasma samples were collected at 2, 4 and 12 hours post last dose. All four paws and both knees were collected and processed for histopathology.

CYP1A2 = CYP1A2 Induction in Human Hepatocytes; type: in vitro ADME; details: 50 μM Omeprazole
Description: CYP activity was determined by monitoring metabolite formation of specific CYP probe substrates (phenacetin for CYP1A2 and testosterone for CYP3A4) using LC-MS/MS. CYP messenger ribonucleic acid (mRNA) was analyzed by RT-PCR to confirm CYP induction potential.

CCOc1cncc(-c2cc(C)c3c(n2)C(C)(C)N(c2cnn(CC(F)F)c2)C3=O)c1 [B, reference compound]
AUC [1]: 330 ng·h/mL
clearance [1]: 22 mL/min/kg
AUC [2]: 600 ng·h/mL
Cmax [2]: 120 ng/mL

Cc1cc(-c2cncc(OCC(F)F)c2)nc2c1C(=O)N(c1cnn(CC(F)F)c1)C2(C)C [C, reference compound]
AUC [1]: 590 ng·h/mL
clearance [1]: 11 mL/min/kg
AUC [2]: 3000 ng·h/mL
Cmax [2]: 200 ng/mL

COc1cncc(-c2cc(C)c3c(n2)C(C)(C)N(c2cnn(CC(F)F)c2)C3=O)c1 [Compound A, reference compound]
AUC [1]: 220 ng·h/mL
clearance [1]: 22 mL/min/kg
AUC [2]: 300 ng·h/mL
Cmax [2]: 60 ng/mL

Cc1cc(-c2cncc(OCC(F)(F)F)c2)nc2c1C(=O)N(c1cnn(CC(F)F)c1)C2(C)C [D, reference compound]
AUC [1]: 1200 ng·h/mL
clearance [1]: 7 mL/min/kg
AUC [2]: 9000 ng·h/mL
Cmax [2]: 500 ng/mL

COc1cc(Nc2ncc(F)c(Nc3ccc4c(n3)N(COP(=O)(O)O)C(=O)C(C)(C)O4)n2)cc(OC)c1OC [Fostamatinib, reference compound]
clinical arthritis scores, therapeutic paws (FIG. 2), significantly reduced [3]: not
reduction of arthritis scores AUC, prophylactic paws only [3]: 32%
reduction of clinical arthritis scores AUC vs vehicle, all paws [3]: 25%
All Paw Score AUC ([3]; 10 days): *23.61
Histopathology Summed Score, Knees ([3]; 10 days): 8.90
Histopathology Summed Score, Paws ([3]; 10 days): 10.25
Histopathology Summed Score, Six Joints ([3]; 10 days): 9.80
Prophylactic Paw Score AUC ([3]; 10 days): *48.30
Therapeutic Paw Score AUC ([3]; 10 days): 46.15
Arthritis scores measured daily, all paws (FIG. 1) ([3]; *d2-11, vs vehicle): significantly reduced toward normal
clinical arthritis scores, prophylactic paws (FIG. 3) ([3]; *d5-9): significantly reduced

COc1ccc2[nH]c([S+]([O-])Cc3ncc(C)c(OC)c3C)nc2c1 (stereo not drawn) [Omeprazole, reference compound]
CYP1A2 mRNA message (CYP1A2; lot 8123): 118.0 fold change
Phenacetin O-Dealkylation (CYP1A2; lot 8123): 25.7 fold change
CYP1A2 mRNA message (CYP1A2; lot LMP): 71.5 fold change
Phenacetin O-Dealkylation (CYP1A2; lot LMP): 36.3 fold change
CYP1A2 mRNA message (CYP1A2; lot YOW): 83.6 fold change
Phenacetin O-Dealkylation (CYP1A2; lot YOW): 17.9 fold change
